Results: PubChem BioAssay AID330 (DTP/NCI, 2004)
“And” between values parts separate entries of the source, which are not always exact repeats. Equal entries are not always repeated. Inconclusive results and toxic doses are left out. The calls were made as follows: active = survival T/C of 150% or more; inactive = T/C below 125% in these data.

Tested on: P388 leukemia ip, CD2F1 mice, survival T/C
Experiment: NCI In Vivo Anticancer Drug Screen. Data for tumor model P388 Leukemia (intraperitoneal) in CD2F1 (CDF1) mice
Details: endpoint: median survival time, higher = longer survival
In short: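 Mice carrying the transplanted tumor received test compound or vehicle. Survival was recorded in each group, and the value is the treated-group measurement divided by that of the vehicle-treated control group.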

[1] = dose: 100.0 mg/kg/injection, schedule: Q01DX001 (ip), vehicle: saline with Tween-80
[2] = dose: 200.0 mg/kg/injection, schedule: Q01DX001 (ip), vehicle: saline with Tween-80
[3] = dose: 400.0 mg/kg/injection, schedule: Q01DX001 (ip), vehicle: saline with Tween-80
[4] = dose: 100.0 mg/kg/injection, schedule: Q01DX009 (ip), vehicle: Klucel (hydroxypropylcellulose) (HPC)
[5] = dose: 25.0 mg/kg/injection, schedule: Q01DX009 (ip), vehicle: Klucel (hydroxypropylcellulose) (HPC)
[6] = dose: 50.0 mg/kg/injection, schedule: Q01DX009 (ip), vehicle: Klucel (hydroxypropylcellulose) (HPC)
[7] = dose: 50.0 mg/kg/injection, schedule: Q01DX009 (ip), vehicle: saline with Tween-80
[8] = dose: 100.0 mg/kg/injection, schedule: Q01DX009 (ip), vehicle: saline with Tween-80
[9] = dose: 100.0 mg/kg/injection, schedule: Q04DX003 (ip), vehicle: Klucel (hydroxypropylcellulose) (HPC)
[10] = dose: 200.0 mg/kg/injection, schedule: Q04DX003 (ip), vehicle: Klucel (hydroxypropylcellulose) (HPC)
[11] = dose: 400.0 mg/kg/injection, schedule: Q04DX003 (ip), vehicle: Klucel (hydroxypropylcellulose) (HPC)
[12] = dose: 50.0 mg/kg/injection, schedule: Q01DX005 (ip), vehicle: saline with Tween-80
[13] = dose: 100.0 mg/kg/injection, schedule: Q01DX005 (ip), vehicle: saline with Tween-80
[14] = dose: 100.0 mg/kg/injection, schedule: Q01DX001 (ip), vehicle: Klucel (hydroxypropylcellulose) (HPC)
[15] = dose: 200.0 mg/kg/injection, schedule: Q01DX001 (ip), vehicle: Klucel (hydroxypropylcellulose) (HPC)
[16] = dose: 400.0 mg/kg/injection, schedule: Q01DX001 (ip), vehicle: Klucel (hydroxypropylcellulose) (HPC)

Measured: T/C

C=C(C)c1c2c(SC)ccc(SC)c2cc2c(SC)ccc(SC)c12
inactive: [1] 96 % of control | [2] 98 % of control | [3] 95 % of control

C=[CH][Sn][CH2]CCC
inactive: [4] 112 % of control

CC(C)=CCCC(C)(OC1OC(CO)C(O)C(O)C1O)C1CCC2(C)C1C(O)CC1C3(C)CCC(O)C(C)(C)C3C(OC3OC(CO)C(O)C(O)C3OC3OC(C)C(O)C(O)C3O)CC12C (configuration not stated)
inactive: dose: 2.0 mg/kg/injection, schedule: Q01DX009 (ip), vehicle: Klucel (hydroxypropylcellulose) (HPC) 88 % of control | dose: 4.0 mg/kg/injection, schedule: Q01DX009 (ip), vehicle: Klucel (hydroxypropylcellulose) (HPC) 92 % of control | dose: 8.0 mg/kg/injection, schedule: Q01DX009 (ip), vehicle: Klucel (hydroxypropylcellulose) (HPC) 92 % of control | dose: 16.0 mg/kg/injection, schedule: Q01DX009 (ip), vehicle: Klucel (hydroxypropylcellulose) (HPC) 95 % of control | [5] 98 % of control | dose: 32.0 mg/kg/injection, schedule: Q01DX009 (ip), vehicle: Klucel (hydroxypropylcellulose) (HPC) 88 % of control | [6] 100 % of control | [4] 100 % of control | dose: 200.0 mg/kg/injection, schedule: Q01DX009 (ip), vehicle: Klucel (hydroxypropylcellulose) (HPC) 98 % of control

O=C(NCCCl)OCC(Cl)(Cl)Cl
inactive: [7] 91 % of control | [8] 100 % of control | dose: 200.0 mg/kg/injection, schedule: Q01DX009 (ip), vehicle: saline with Tween-80 98 % of control

COc1cc(OC)c2ccc(=O)oc2c1/C=C\C1(C)CCC(C)=CC1c1c(OC)cc(OC)c2ccc(=O)oc12 (configuration not stated)
inactive: dose: 2.5 mg/kg/injection, schedule: Q01DX005 (ip), vehicle: Klucel (hydroxypropylcellulose) (HPC) 96 % of control | dose: 5.0 mg/kg/injection, schedule: Q01DX005 (ip), vehicle: Klucel (hydroxypropylcellulose) (HPC) 105 % of control | dose: 10.0 mg/kg/injection, schedule: Q01DX005 (ip), vehicle: Klucel (hydroxypropylcellulose) (HPC) 117 % of control | dose: 20.0 mg/kg/injection, schedule: Q01DX005 (ip), vehicle: Klucel (hydroxypropylcellulose) (HPC) 96 % of control | dose: 40.0 mg/kg/injection, schedule: Q01DX005 (ip), vehicle: Klucel (hydroxypropylcellulose) (HPC) 86 % of control

CC1(C)CC2(CC3(C1)S(=O)(=O)CCS3(=O)=O)S(=O)(=O)CCS2(=O)=O
inactive: dose: 6.25 mg/kg/injection, schedule: Q01DX009 (ip), vehicle: saline 103 % of control | dose: 12.5 mg/kg/injection, schedule: Q01DX009 (ip), vehicle: saline 100 % of control | dose: 25.0 mg/kg/injection, schedule: Q01DX009 (ip), vehicle: saline 116 % of control | dose: 50.0 mg/kg/injection, schedule: Q01DX009 (ip), vehicle: saline 100 % of control

CC#CC#C/C=C1/C=CC2(CCCCO2)O1 (configuration not stated)
inactive: dose: 12.5 mg/kg/injection, schedule: Q01DX009 (ip), vehicle: Klucel (hydroxypropylcellulose) (HPC) 100 % of control | [5] 101 % of control | [6] 107 % of control | [4] 104 % of control

C/C(=C/Cc1ccccc1)C(=O)O
inactive: [1] 108 % of control | [2] 108 % of control | [3] 99 % of control

C=C1C(C)C2C(Cc3ccccc3)NC(=O)C23C(OC(C)=O)/C=C/C(C)(O)CC(C)C/C=C/C3C1O (configuration not stated)
inactive: dose: 3.13 mg/kg/injection, schedule: Q01DX009 (ip), vehicle: saline with Tween-80 121 % of control | dose: 6.25 mg/kg/injection, schedule: Q01DX009 (ip), vehicle: saline with Tween-80 124 % of control

C[C@@H]1CC(c2ccc(Cl)cc2)[C@@H](c2ccccc2)C(=O)O1 (some centres not stated)
inactive: [9] 100 % of control | [10] 99 % of control | [11] 97 % of control

CNc1nc(=S)nc(-c2ccccc2)s1
inactive: [12] 100 % of control | [13] 106 % of control | dose: 200.0 mg/kg/injection, schedule: Q01DX005 (ip), vehicle: saline with Tween-80 92 % of control

CC(C)(O)c1ccccc1S(=O)c1ccccc1 (configuration not stated)
inactive: [14] 101 % of control | [15] 100 % of control | [16] 92 % of control

N#Cc1c(C(=O)NN)cc(-c2ccc3ccccc3c2)[nH]c1=O
inactive: [12] 100 % of control | [13] 98 % of control

BrCC[Se]c1ccccc1
inactive: dose: 25.0 mg/kg/injection, schedule: Q01DX009 (ip), vehicle: saline with Tween-80 103 % of control | [7] 112 % of control and 117 % of control | [8] 120 % of control and 124 % of control

CC12CSC(C)(SC1)SC2
inactive: dose: 25.0 mg/kg/injection, schedule: Q01DX001 (ip), vehicle: Klucel (hydroxypropylcellulose) (HPC) 99 % of control | dose: 50.0 mg/kg/injection, schedule: Q01DX001 (ip), vehicle: Klucel (hydroxypropylcellulose) (HPC) 99 % of control | [14] 100 % of control | [15] 100 % of control | [16] 95 % of control

CSC(=O)N(C)C(=O)Nc1cccc([N+](=O)[O-])c1
inactive: [9] 100 % of control | [10] 99 % of control | [11] 90 % of control

O=C1c2ccccc2C(=O)c2c(NCCNCCO)ccc(NCCO)c21
inactive: dose: 5.0 mg/kg/injection, schedule: Q04DX002 (ip), vehicle: saline 115 % of control
